Experimental data from patent US20200390755A1, “COMPOUND FOR TREATING NERVOUS SYSTEM DISEASES AND USE THEREOF” (SHAANXI MICOT TECHNOLOGY CO., LTD., priority 2018, published 2020).
Marks after values point to notes of the source that are not given here.

Tests used:
[1] = system: N171-82Q HD mice; experiment: In vivo MRI scan and brain volume measurement, HD mice; design: species or system mouse; conditions: 5 mg/kg/d, administered until 24 weeks, n = 4
Description: 7-week-old N171-82Q HD male mice were paired with female B6C3F1/J hybrid mice to obtain newborn mice. From 21 days of age, male mice were housed in separate cages. 0.5 cm of mouse tail tissue was removed to extract DNA to determine the genotype of the mouse, such that N171-82Q HD mice and WT mice needed for the experiment were obtained. The mice were randomly divided into WT Vehicle group (normal mice), WT test compound group (administration group of normal mice, 5 mg/kg/d, n=10), HD Vehicle group (blank group of HD mice, n=15), HD test compound group (administration groups 1-5 of HD mice, 5 mg/kg/d, n=10). The test compound was suspended in 1% CMC-Na solution and administered by intragastric administration until the end of the study. The weights of the mice were measured every week. Behavioral tests were performed at 12 weeks, 18 weeks, and 24 weeks of age to investigate motor function. At 20 weeks, 3 samples of tissue from each group were used for western blotting and immunohistochemistry. At 24 weeks, MRI scans were performed. At the end of the study, the effect of the test compound on the mortality of mice was evaluated.
The WT Vehicle group, WT test compound group, HD Vehicle group and HD test compound group were administered until 24 weeks, and 4 mice in each group were taken for in vivo MRI scanning and brain volume measurement. A 9.4 T MRI scanner equipped with three-axis gradient and animal imaging probes was used. The mice were anesthetized with 1% isoflurane. The breath of mice was monitored, and constant temperature was maintained throughout the scan. Three-dimensional T2 weighted fast spin echo sequence technology was used to obtain images. The imaging resolution and contrast of this technology were sufficient to automatically describe the volume of the mouse brain and substructures. The parameters were as follows: echo time (TE)/repetition time (TR) ^1/440/700 ms, resolution ^1/40.1×0.1×0.1 mm, echo train length ^1/44, average number ^1/42 and flip angle ^1/4408. The instrument contained a powerful linux cluster that can encode and run large-scale deformation diffusion metric maps (LDDMM) to obtain high-intensity standardized images. These transformations encoded morphological differences between images and analyzed based on deformation morphological measurements (DBM) to detect regional changes in brain volume. The volume of the whole brain (Brain), […] was analyzed.
The MRI scanning technology was used to analyze the morphological differences between the experimental object and the template image, and the LDDMM method was used to calculate and analyze the brain tissue structure of the mouse. The statistical results of the brain volume, striatum volume, and neurocortex volume of the test compound Example 1 are shown in FIG. 3, in which FIG. 3A is the statistical results of the whole brain volume, and FIG. 3B is the statistical results of striatum volume, and FIG. 3C is the statistical results of neurocortex volume.

[2] = system: rats with permanent cerebral ischemia; experiment: Neurobehavioral scoring in rats with permanent cerebral ischemia (MCAO thread plug); assay type: in vivo, SD rats; conditions: 20 mg/kg by gavage
Description: SD rats, male, about 220-250 g, were provided by the Experimental Animal Center of Medical College of Xi'an Jiaotong University. Rats were randomly divided into groups of 14 animals/group. The experiment included a sham group, a model group, a positive control Edaravone group and test compound groups 1-5.12 hours before the operation, the rats were fasted and were free to drink water, and then used for the modeling method of middle cerebral artery occlusion with thread plug. The rats were fixed on a wooden board after anesthesia, the common carotid artery was ligated proximally, the external carotid artery was ligated distally, and the main internal carotid artery into skull was retained. A ligature line was reserved at the bifurcation of the internal carotid artery for temporarily clamping the distal end of the internal carotid artery using an arterial clip. A 3-0 nylon thread with a length of 5 cm and a spherical shape with a diameter of 0.3 mm at the tip was inserted into the common carotid artery through a small incision at the bifurcation. The arterial clamp was loosened, and the thread plug was slowly advanced to 18˜20 mm. When there was resistance, the progress of the thread was stopped. At this time, the nylon thread plug entered the middle artery and blocked the blood flow, and then the ischemic phase began. The skin was sutured. In the sham operation group, the same procedure was executed, except that no thread plug was inserted.
Administering was performed at 0 h, 3 h, 6 h and 12 h after ischemia, and then administering was performed once a day for 7 consecutive days. The test compound was prepared into a 4 mg/mL solution with 1% CMC-Na solution and administered by gavage. The edaravone group received an intravenous dose of 0.078 mg/kg.
2) The rats were lifted at its tail about 1 foot off the ground to observe the condition of both forelimbs. The rats were placed on a level ground and pushed on both shoulders to observe the difference in resistance on both sides. The rats were placed on the ground to observe the walking. The assessment was conducted using a five-grade four-point scoring method (0 to 4 points). The higher the score, the more severe the neurobehavioral damage.
0 point: the behavior is completely normal;
1 point: when the rat is lifted at its tail off the ground, the forelimb on the opposite side of the operation rotates and folds inwardly.
2 points: when the rat is placed on a level ground and pushed on both shoulders to observe the difference in resistance on both sides, the resistance on the opposite side of the operation reduces;
3 points: when the rat is placed on the ground to the walking, it circles around the opposite side of the operation;
4 points: The injury is so severe that the rat is unable to move independently.
(2) Statistical analysis of data: SPSS18.0 statistical software was used for statistical analysis and the data of each group was expressed as the mean standard error (x±SEM). One-way ANOVA and multiple comparisons between groups were used to compare the averages of measurement data among multiple groups. Rank score test was used for behavioral grading data, and Kaplan-Meier method was used for mortality. P<0.05 was considered statistically significant.

SMILES | MRI volume, Neurocortex [1] | MRI volume, Striatum [1] | MRI volume, Whole brain [1] | Neurobehavioral score (0 to 4 points) ([2]; 6 h after ischemia) | Neurobehavioral score (0 to 4 points) ([2]; 1 d after ischemia) | Neurobehavioral score (0 to 4 points) ([2]; 2 d after ischemia) | Neurobehavioral score (0 to 4 points) ([2]; 3 d after ischemia) | Neurobehavioral score (0 to 4 points) ([2]; 4 d after ischemia) | Neurobehavioral score (0 to 4 points) ([2]; 5 d after ischemia) | Neurobehavioral score (0 to 4 points) ([2]; 6 d after ischemia) | Neurobehavioral score (0 to 4 points) ([2]; 7 d after ischemia)
COc1ccc2c(=O)cc(-c3ccc(N4CCCCC4)cc3)oc2c1OC [Example 2, 7,8-dimethoxy-2-(4-(piperidin-1-yl)phenyl)-4H-chromen-4-one] | 18.68 ± 0.598** mm^3 | 79.10 ± 0.976** mm^3 | 449.97 ± 7.279** mm^3 | 2.13 ± 0.17 | 2.04 ± 0.13 | 2.20 ± 0.25 | 1.98 ± 0.45 | 1.87 ± 0.27 | 2.11 ± 0.16 | 1.79 ± 0.28 | 1.21 ± 0.22
CC1(C)CCN(c2ccc(-c3cc(=O)c4ccc(O)c(O)c4o3)cc2)CC1 [Example 4, 2-(4-(4,4-dimethylpiperidin-1-yl)phenyl)-7,8-dihydroxy-4H-chromen-4-one] | 18.59 ± 0.899** mm^3 | 79.03 ± 1.834** mm^3 | 461.31 ± 3.451** mm^3 | 2.23 ± 0.36 | 1.99 ± 0.36 | 1.85 ± 0.45 | 2.23 ± 0.36 | 1.54 ± 0.27 | 1.78 ± 0.11 | 1.68 ± 0.27 | 1.12 ± 0.23
O=c1cc(-c2ccc(N3CCCCC3)cc2)oc2c(O)c(O)ccc12 [Example 1, 7,8-dihydroxy-2-(4-(piperidin-1-yl)phenyl)-4H-chromen-4-one] | 18.90 ± 0.341** mm^3 | 79.47 ± 1.079** mm^3 | 460.47 ± 2.145** mm^3 | 2.07 ± 0.22 | 2.11 ± 0.2 | 1.88 ± 0.35 | 2.13 ± 0.23 | 1.88 ± 0.35 | 2 ± 0.38 | 1.86 ± 0.34 | 1.17 ± 0.17
CN(C)C1CCN(c2ccc(-c3cc(=O)c4ccc(O)c(O)c4o3)cc2)CC1 [Example 3, 2-(4-(4-(dimethylamino)piperidin-1-yl)phenyl)-7,8-dihydroxy-4H-chromen-4-one] | 19.05 ± 0.997** mm^3 | 80.34 ± 1.238** mm^3 | 465.33 ± 9.218** mm^3 | 1.98 ± 0.25 | 2.23 ± 0.34 | 1.91 ± 0.26 | 1.87 ± 0.33 | 1.74 ± 0.26 | 1.63 ± 0.20 | 1.78 ± 0.34 | 1.01 ± 0.27
CC1CC(C)CN(c2ccc(-c3cc(=O)c4ccc(O)c(O)c4o3)cc2)C1 (stereo not shown) [Example 5, 2-(4-(3,5-dimethylpiperidin-1-yl)phenyl)-7,8-dihydroxy-4H-chromen-4-one] | 19.01 ± 0.557** mm^3 | 79.43 ± 0.898** mm^3 | 462.19 ± 2.178** mm^3 | 2.03 ± 0.29 | 1.86 ± 0.44 | 1.75 ± 0.25 | 1.94 ± 0.23 | 1.85 ± 0.34 | 1.93 ± 0.20 | 1.72 ± 0.44 | 1.19 ± 0.30
